Test results from patent publication US12061201B2, “Fluorescent probes for the visualization of FtsZ in gram-positive and gram-negative bacterial pathogens” (Rutgers, The State University of New Jersey, priority 2019, dated 2024).

Columns and labels:
[1] = test system: FtsZ in S. pyogenes ATCC 19615 cells; test: Fluorescence microscopy FtsZ visualization in live cells; format: cell-based; details: 1 μg/mL (1.3 μM) BOFP, 5 minutes
Experimental: (§1) Fluorescence microscopy assay for visualizing FtsZ and monitoring cell division in live Gram-positive and Gram-negative bacterial cells using BOFP. All fluorescence microscopy experiments were conducted using an Olympus BX50 microscope equipped with an X-cite Exacte 200W mercury lamp, a 100× Olympus UPLSAPO oil immersion objective (1.40 aperture), and a Chroma ET-EGFP (FITC/Cy2) filter. Images were captured using a QImaging Retiga R3 charge-coupled device (CCD) camera and the Ocular-Version 2.0 software package (QImaging).
(§2) For visualizing FtsZ in Gram-positive bacteria using BOFP, the bacterial cells were grown to log-phase in media suitable for each individual pathogen. Specifically, S. aureus NRS705 was grown in tryptic soy broth (TSB), E. faecalis ATCC 29212 and E. faecium ATCC 19434 were grown in lactobacilli MRS broth, S. agalactiae ATCC 12386 and S. pneumoniae ATCC 49619 were grown in TH broth, and S. pyogenes ATCC 19615 was grown in CAMH broth supplemented with 3% (v/v) LHB. For each Gram-positive bacterial strain, a total of 1 mL of cell culture was centrifuged at 15,000×g for 1 minute and washed 2-3 times with 1 mL of PBS. After the final wash, the pelleted cells were resuspended in 500 μL of PBS containing 1 μg/mL of BOFP and incubated in the dark for 5 minutes at room temperature. The cells were then centrifuged at 15,000×g for 1 minute, washed twice with 1 mL of PBS, and subsequently resuspended in 200 μL of PBS. 8 μL of this final cell suspension was then spread on a 0.25 mm layer of 1.5% high-resolution agarose (Sigma) in PBS, which was mounted on a standard 75×25×1 mm microscope slide (Azer Scientific) using a 1.7×2.8×0.025 cm Gene Frame (ThermoFisher). A 24×40 mm cover slip (Azer Scientific) was then applied to the agarose pad to prepare the slide for microscopic visualization.

[2] = test system: FtsZ in S. agalactiae ATCC 12386 cells; test: as above; format: cell-based; details: 1 μg/mL (1.3 μM) BOFP, 5 minutes
Experimental: as §1, §2

CC1=CC(C)=[N+]2C1=Cc1ccc(CCC(=O)OCC(Oc3ccc(F)c(C(N)=O)c3F)c3nc(-c4ccc(C(F)(F)F)cc4)c(Br)o3)n1[B-]2(F)F (centres unmarked) [BOFP, 2-(5-bromo-4-(4-(trifluoromethyl)phenyl)-oxazol-2-yl)-2-(3-carbamoyl-2,4-difluorophenoxy)ethyl 3-(5,5-difluoro-7,9-dimethyl-5H-5λ^4,6λ^4-dipyrrolo[1,2-c:2′,1′-f][1,3,2]diazaborinin-3-yl)propanoate]
FtsZ labeling (fluorescence staining) in live cells [1]: bright bands of fluorescence staining were clearly visible at midcell | FtsZ labeling (fluorescence staining) in live cells [2]: bright bands of fluorescence staining were clearly visible at midcell
